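Briefly, cells in 96-well plates were exposed to five compound concentrations for 48 h, and endpoints were estimated by linear interpolation. TGI is the concentration that stops growth completely.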
Key:
Test in all cases: NCI-60 cell line screen, 48 h
HCC-2998 colon = system: HCC-2998 colon
OVCAR-8 ovarian = system: OVCAR-8 ovarian
COLO 205 colon = system: COLO 205 colon
SK-MEL-2 melanoma = system: SK-MEL-2 melanoma
NCI-H460 lung = system: NCI-H460 lung
NCI/ADR-RES ovarian = system: NCI/ADR-RES ovarian
HCT-15 colon = system: HCT-15 colon
UACC-62 melanoma = system: UACC-62 melanoma
BT-549 breast = system: BT-549 breast
786-0 renal = system: 786-0 renal
OVCAR-4 ovarian = system: OVCAR-4 ovarian
MOLT-4 leukemia = system: MOLT-4 leukemia
SF-268 CNS = system: SF-268 CNS
NCI-H226 lung = system: NCI-H226 lung

SMILES | TGI (HCC-2998 colon) [µM] | TGI (OVCAR-8 ovarian) [µM] | TGI (COLO 205 colon) [µM] | TGI (SK-MEL-2 melanoma) [µM] | TGI (NCI-H460 lung) [µM] | TGI (NCI/ADR-RES ovarian) [µM] | TGI (HCT-15 colon) [µM] | TGI (UACC-62 melanoma) [µM] | TGI (BT-549 breast) [µM] | TGI (786-0 renal) [µM] | TGI (OVCAR-4 ovarian) [µM] | TGI (MOLT-4 leukemia) [µM] | TGI (SF-268 CNS) [µM] | TGI (NCI-H226 lung) [µM]
CC[N+]1(C)CCC(O)(/C=C/c2ccc(Cl)cc2)C(C(=O)/C=C/c2ccc(Cl)cc2)C1 (stereo not given) | 45.1 | 51 | > 26.5 | 39 | > 28.2 | 39.7 | > 51.6 | 37.4 | 39.3 | > 26.5 | > 67.2 | 6.52 | > 60.6 | 
CCOC(=O)c1nc2ccccc2nc1Oc1ccc(OC)cc1 |  | > 100 | > 100 | > 100 | > 100 | > 100 | > 100 | > 100 | > 100 | > 100 | > 100 | > 100 | > 100 | > 100
Clc1ccc(-c2nnc(C34CC5CC(CC(C5)C3)C4)o2)cc1 | > 100 | > 100 | > 100 | > 100 | > 100 | > 100 | > 100 | > 100 |  | > 100 | > 100 | > 100 | > 100 | > 100
CCN(CC)c1cccc2c1C1(O)CCC3(CC21)OCCCCO3 (stereo not given) | > 100 | > 100 | > 100 | > 100 | > 100 |  | > 100 |  |  | > 100 | > 100 | > 100 | > 100 | > 100
N/C(COc1ccc(Cl)cc1)=N\NC(=O)c1ccncc1 | > 100 | > 100 | > 100 | > 100 | > 100 | > 100 | > 100 | > 100 | > 100 | > 100 | > 100 | > 100 | > 100 | 
CCOC(=O)C(=CNC(=S)Nc1c(CC)cccc1CC)C(=O)OCC | > 100 | > 100 | > 100 | > 100 | > 100 | > 100 |  | > 100 |  | > 100 | > 100 | > 100 | > 100 | > 100
CCOC(=O)C1=NN(c2ccccc2)C2=CC(C)=NN(C)C(=S)N21 | > 100 | > 100 | > 100 | > 100 | > 100 | > 100 | > 100 | > 100 | > 100 |  | > 100 | > 100 | > 100 | 
O=[N+]([O-])/C=C/COCc1cc2c(cc1Br)OCO2 | 34.2 | > 100 | 43.6 |  | > 100 | 41.6 | 34.3 | 30.1 |  | 30.6 | 36.7 | > 100 | 41.4 | 
CCCCCCCSCC1C(=O)C23C(O)C1CCC2C12COC3(O)C(O)C1C(C)(C)CCC2O (stereo not given) | 31.4 | 31.1 | 15.1 | 29.8 | 29.8 |  | 22.4 | 24 |  | 26.7 | 25.3 | 28.2 | 33.9 | 33

Reference: PubChem BioAssay (NCI)
